Assay results from publication PMC5471204, “Autotransporter domain-dependent enzymatic analysis of a novel extremely thermostable carboxylesterase with high biodegradability towards pyrethroid pesticides” (Scientific Reports, 2017).

The compounds below were run on T1, EstPS1 (assay: p-nitrophenol release at […] nm, Lineweaver-Burk). Settings: 50 mM Tris-HCl pH 8.0, 60 °C.
T1 construct: full-length ORF with signal peptide (24 residues) and autotransporter domain (357-640); N-terminal His-tag, pET-28a, E. coli BL21(DE3), Ni-NTA; 640 residues, 68 kDa
Format: biochemical, Pseudomonas synxantha

SMILES	Km
CCCCCCCCCCCC(=O)Oc1ccc([N+](=O)[O-])cc1 [p-Nitrophenyl laurate]	391 ± 9 µM
CC(=O)Oc1ccc([N+](=O)[O-])cc1 [p-Nitrophenyl acetate]	102 ± 12 µM
CCCCCCCC(=O)Oc1ccc([N+](=O)[O-])cc1 [p-Nitrophenyl caprylate]	61 ± 10 µM
CCCCCC(=O)Oc1ccc([N+](=O)[O-])cc1 [p-Nitrophenyl caproate]	76 ± 7 µM
CCCC(=O)Oc1ccc([N+](=O)[O-])cc1 [p-Nitrophenyl butyrate]	43 ± 8 µM
CCCCCCCCCC(=O)Oc1ccc([N+](=O)[O-])cc1 [p-Nitrophenyl decanoate]	362 ± 13 µM

The compounds below were run on T1, EstPS1 (assay: pesticide hydrolysis, gas chromatography, Lineweaver-Burk). Settings: 50 mM Tris-HCl pH 8.0, 40 °C (degradation assay); stated substrate range 10 to 500 μM.
Format: biochemical, Pseudomonas synxantha
From the text: pesticide hydrolysis, gas chromatography, Lineweaver-Burk on EstPS1

SMILES	Km
CC1(C)C(C=C(Cl)Cl)C1C(=O)OC(C#N)c1cccc(Oc2ccccc2)c1 (stereo not drawn) [cis-Cypermethrin]	0.62 ± 0.031 µM
Cc1c(COC(=O)[C@@H]2[C@H](/C=C(\Cl)C(F)(F)F)C2(C)C)cccc1-c1ccccc1 (racemic) [Bifenthrin]	1.25 ± 0.061 µM
CNC(=O)Oc1cccc2ccccc12 [Carbaryl]	0.21 ± 0.01 µM
CC1(C)C(C=C(Cl)Cl)C1C(=O)OC(C#N)c1cccc(Oc2ccccc2)c1 (stereo not drawn) [trans-Cypermethrin]	0.53 ± 0.028 µM
CC(C)C(C(=O)OC(C#N)c1cccc(Oc2ccccc2)c1)c1ccc(Cl)cc1 (stereo not drawn) [Fenvalerate]	0.84 ± 0.042 µM
CC1(C)C(C(=O)OC(C#N)c2cccc(Oc3ccccc3)c2)C1(C)C (stereo not drawn) [Fenpropathrin]	0.25 ± 0.014 µM
